In one assay the test system is somatic cells. Briefly: Modification of cellular ROS levels in high-ROS / low-ROS somatic cells. As to conditions: 4 hours. It is filed as cell-based, human.
In assay [1] the test system is pATM. As to conditions: A-hiPSC from AG4 fibroblasts, 3 mM from one day before to 10 days post reprogramming virus infection, phleomycin 2 h, 30 μg/mL, vs untreated A-hiPSC. The method, then:
(§1) For the generation of human A-iPSC, 10^5 skin fibroblasts such as young somatic cells (Y-SC) from MRCS and aged somatic cells (A-SC) from LS and AG4 donors aged 80 to 100 years were infected with retrovirus generated from the tetracistronic SFG-SV2 vector encoding for hOCT4, hSOX2, hKLF4, and hMYC in 6-well dishes with 0.5 mL of each viral supernatant (total 2 mL per well); and spun at 2500 rpm at RT for 90 min (BenchTop Centrifuge, BeckmanCoulter, Allegra-6R). The cells were contacted with 3 mM glutathione reduced ethyl ester prior to and during the early stage of reprogramming (from one day before reprogramming virus infection to 10 days post reprogramming virus infection).

For another assay, the system named is human AG4 fibroblasts. As to conditions: AG4-GSH vs AG4 control, 100,000 cells each, iPSC colonies counted at day 21. The method, then:
as §1

The next assay has as its system GSS. As to conditions: A-iPSC generated with 3 mM treatment; vs untreated A-iPSC. The method, then: (§2) Quantitative real time-PCT (Q-PCR) analysis. The expression levels of genes (ZSCAN10, GSS) were quantified by Q-PCR with Power SYBR Green PCR mastermix (Applied Biosystems). Total RNAs (1 μg) were reverse-transcribed in a volume of 20 μL using the M-MuLV Reverse Transcriptase system (New England Biolabs), and the resulting cDNA was diluted into a total volume of 200 μL. 10 μL of this synthesized cDNA solution was used for analysis. For pluripotent genes, each reaction was performed in a 25-μL volume using the Power SYBR Green PCR mastermix (Applied Biosystems). The conditions were programmed as follows: initial denaturation at 95° C. for 10 min followed by 40 cycles of 30 sec at 95° C., 1 min at 55° C., and 1 min at 72° C.; then 1 min at 95° C., 30 s at 55° C., and 30 sec at 95° C. All of the samples were duplicated, and the PCR reaction was performed using an Mx3005 reader (Stratagene), which can detect the amount of synthesized signals during each PCR cycle. The relative amounts of the mRNAs were determined using the MxPro program (Strategene). The amount of PCR product was normalized to the percentage of the expression level of β-actin.

In a further assay the test system is ZSCAN10. As to conditions: A-iPSC generated with 3 mM treatment; vs untreated A-iPSC. The method, then:
as §2

The subject of assay [2] is G-quadruplex (G4) DNA structure. Briefly: G4 DNA structure formation (G4 IHC staining, G4-antibody ChIP-seq) in fibroblasts. It is filed as cell-based, human. As to conditions: for G4 DNA structure formation / G4 level: 4 hours; for G4 DNA structure formation: cells with high ROS levels. As to the method:
G4 and 8-oxoguanosine Immunostaining. Cells were fixed in 3.7% formaldehyde for 20 minutes at room temperature and washed with phosphate buffered saline (PBS). Samples were then permeabilized with 0.1 Triton X-100 in PBS for 20 minutes and blocked for 1 hour with 3% bovine serum albumin (BSA) in PBS-T, followed by incubation with primary antibodies for 2 hours at room temperature or overnight at 4° C. Anti-DNA G-quadruplex (G4) Antibody, clone 1H6 (MABE1126, EMD Millipore, Burlington, Mass.) was used for the detection of DNA G-quadruplex and ANTI-8 HYDROXYGUANOSINE AB (N45.1) AB48508 from Abcam (Cambridge, United Kingdom). Primary antibodies were used at a 1:250 dilution and 1:50 respectively. Alexa 568-conjugated goat anti-mouse IgM (A-21124) was from Molecular Probes (Eugene, Oreg.). Secondary antibodies were used at a 1:1000 dilution. The nuclei were stained with 4′,6-diamidino-2-phenylindole (DAPI, Sigma, St. Louis, Mo.). Image quantification was performed with Image J (NIH, Bethesda, Md.), quantifying mean fluorescence intensity in the nuclear regions.
GSH and BSO Treatment, Time-Course Experiment. High ROS fibroblasts were treated by adding glutathione reduced ethyl ester (3 mM, GEE; Gold Biotechnology Inc., St. Louis, Mo.) to the media. Treated High ROS fibroblasts were then fixed and processed for staining at multiple timepoints. Low ROS fibroblasts were treated with L-Buthionine-sulfoximine (500 μM, BSO; Sigma, St. Louis, Mo.) to the media. Treated Low ROS fibroblasts were then fixed and processed for staining at multiple timepoints.
CHIP-SEQ for G4 Structures. Chromatin immunoprecipitation (ChIP) was performed according to the published protocol (see Carey, M. F., et al., Chromatin Immunoprecipitation (ChIP), COLD SPRING HARB PROTOC (CSH Press) (2009)). Anti-DNA G-quadruplex (G4) Antibody, clone 1H6 (MABE1126, EMD Millipore, Burlington, Mass.) was used for the detection of DNA G-quadruplex.

Another assay concerns A-SC from AG4 donor. As to conditions: 3 mM for three days in the media.
In a further assay the test system is human A-iPSC. As to the method: as §1
Copy number profiling analysis. Copy number profiling analysis was performed according to a published protocol (Baslan et al., Genome Research 25:1-11 (2015)).

The next assay relates to mouse A-iPSC. The experiment in a line: DNA damage response in mouse A-iPSC treated with GSS inhibitor. It is filed as cell-based. As to conditions: treatment of mouse A-iPSC; data not shown. An excerpt:
A-iPSC have excessive levels of glutathione (FIG. 3D) and elevated ROS scavenging activity (FIG. 3E) relative to Y-iPSC or ESC. While ROS levels in A-iPSC were increased by treatment with DNA damaging agents (FIG. 3E) and this might be sufficient to cause direct DNA damage and genomic instability, improper scavenging of ROS by excess glutathione would limit the ROS cellular stress signal needed to induce the DNA damage response, which would in turn reduce apoptosis and increase A-iPSC exposure to additional genotoxic stress, allowing accumulation of mutations and other genomic alterations. Upon ZSCAN10 expression, glutathione and ROS scavenging activity were normalized to levels equivalent to those seen in Y-iPSC and ESC (FIG. 3D, 3E). In addition, shRNA knockdown of GSS in reprogrammed A-iPSC (data not shown) decreased glutathione levels and ROS scavenging activity (data not shown), increased apoptosis (FIG. 3F), and recovered the DNA damage response (FIG. 3G). The DNA damage response was also recovered by treatment of A-iPSC with the GSS pharmacological inhibitor, L-Buthionine-sulfoximine (BSO) (data not shown). Conversely, overexpression of GSS in Y-iPSC (data not shown) increased glutathione and ROS scavenging activity (data not shown), decreased apoptosis (FIG. 3F), and blunted the DNA damage response (FIG. 311).

Assay [3] has as its system pATM. The experiment in a line: Immunoblot of pATM after phleomycin treatment in BSO-A-iPSC. It is filed as cell-based. As to conditions: 0.5 mM from end of reprogramming day 5, ten independent clones of A-iPSC. As to the method:
Immunoblot analysis. […] Secondary antibodies were from Cell Signaling (1:10,000).
BSO treatment. BSO-A-iPSC were generated in the presence of 500 μM of L-Buthionine-sulfoximine (BSO, Sigma, B2515) starting on the end of reprogramming day 5. The treatment was kept throughout the end of reprogramming process and after picking the colonies.
BSO-A-iPSC were generated in the presence of 500 μM of L-Buthionine-sulfoximine (BSO, Sigma B2515) starting on the end of reprogramming day 5 as previously described (see, e.g., Ji, et al. Experimental & Molecular Medicine 42:175-186 (2010)).

Where two headings read alike, the source gives them in different places.

Text for A-SC from AG4 donor: Reactive oxygen species (ROS) analysis. The production of superoxide by mitochondria can be visualized in fluorescence microscopy using the MitoSOX™ Red reagent (M36008, Thermofisher scientific). MitoSOX™ Red reagent permeates live cells where it selectively targets mitochondria. It is rapidly oxidized by superoxide but not by other reactive oxygen species (ROS) and reactive nitrogen species (RNS). The oxidized product is highly fluorescent upon binding to nucleic acid. Fluorescence microscopy was used to visualize the fluorescence and imaging software (Image J) was used to quantify the staining of the different cell lines.
MitoSOX RED Staining. MitoSOX Red staining (MitoSOX™ Red mitochondrial superoxide indicator *for live-cell Imaging, M36008, ThermoFisher Scientific, Waltham, Mass.) was performed according to Molecular Probes/Thermo Scientific protocol. Briefly, the MitoSOX™ reagent stock solution (5 mM, prepared in HBSS/Ca/Mg or suitable buffer) was diluted to make a 5 μM MitoSOX™ reagent working solution. 1.0-2.0 mL of the 5 μM MitoSOX™ reagent working solution was applied to cover cells adhering to coverslip(s). Cells were incubated for 10 minutes at 37° C., protected from light. Cells were washed before imaging.

As to `N[C@@H](CCC(=O)N[C@@H](CS)C(=O)NCC(=O)O)C(=O)O` [glutathione reduced ethyl ester], the “cellular ROS level” value with somatic cells (3 mM, high-ROS somatic cells) is reported as “decreases”. The results for the “DNA damage response (pATM immunoblot)” value in the assay on pATM [1] and with pATM [1] (listed as glutathione) were “protects the DNA damage response” and “impairs the DNA damage response”, respectively. Also, in the assay on human AG4 fibroblasts, the “increase of reprogramming efficiency” value is on record as “approximately 10 fold”. In the assay with GSS, the “GSS levels in the A-iPSC (Q-PCR)” value is “reduced”. Besides, the “ZSCAN10 levels in the A-iPSC (Q-PCR)” value in the assay on ZSCAN10 is “elevated”. The “G4 DNA structure formation” value is “reduces G4 DNA structure formation” in assay [2] (3 mM) and “decreases” in assay [2] (3 mM, listed as GEE). In addition, in assay [2] (high ROS fibroblasts, 3 mM, time-course (FIG. 14A)), the “G4 IHC staining of fibroblasts” value is on record as “lower G4 IHC staining”. In addition, in the assay with A-SC from AG4 donor, the “cellular ROS level (MitoSOX staining)” value is “reduces the cellular ROS level”. In addition, the “genomic stability (copy number profiling)” value in the assay on human A-iPSC (A-hiPSC from AG4 fibroblasts, 3 mM prior to and during first 10 days of reprogramming, vs untreated A-hiPSC) is “maintains genomic stability”. For the same compound, the “detected rearrangements per number of clones (copy number profiling)” value in the assay on human A-iPSC (human A-iPSC with glutathione treatment, 10 clones, untreated A-hiPSC 7/11) is 0/10.
Turning to `NCCOc1cc(C(=O)Nc2cc(OCCN)c3ccccc3n2)nc(C(=O)Nc2cc(OCCN)c3ccccc3n2)c1` [pyridostatin], in [2] (10 μM, somatic cells), the G4 level result is given as “increases G4”.
In the case of `CCCCS(=N)(=O)CCC(N)C(=O)O` [BSO, L-Buthionine-sulfoximine], the “cellular ROS level” value in the assay on somatic cells (0.5 mM, low-ROS somatic cells) is listed as “increases”. For the same compound, the G4 level result in [2] (0.5 mM, low-ROS somatic cells) was “increases”. Besides, in [2] (low ROS fibroblasts, 500 μM, time-course (FIG. 14B)), the “G4 IHC staining of fibroblasts” value is “higher G4 IHC staining”. Also, the DNA damage response entry with mouse A-iPSC is recorded as “recovered”. Besides, the “DNA damage response (pATM immunoblot)” value in the assay with pATM [3] was “recovery of the DNA damage response”.
